Assays:
Linsitinib = compound: C[C@]1(O)C[C@@H](c2nc(-c3ccc4ccc(-c5ccccc5)nc4c3)c3c(N)nccn32)C1 [Linsitinib]; test: relative viability (nuclei count vs DMSO), 5 days (fraction); higher = more cells survive
How it was run: (§1)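 Hoechst staining, done together with fixation and permeabilisation, marked nuclei for 4× imaging and MetaXpress counting. This followed 5 days without medium change after lung cancer cell lines, kept overnight at 37 °C in 1536-well plates, were pinned with five library-drug doses (not always all listed) spaced by √10 on vehicle-anchored plates. Viability is the ratio of treated-well to vehicle-well nuclei, expressed as a median across plates. Plates passed only at control CV below 25% with at least one doubling.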

Ispinesib = compound: Cc1ccc(C(=O)N(CCCN)[C@@H](c2nc3cc(Cl)ccc3c(=O)n2Cc2ccccc2)C(C)C)cc1 [Ispinesib]; test: as above
How it was run: as §1

Row | Cell Line | relative viability (Linsitinib; 0.01 µM) | relative viability (Linsitinib; 0.03162 µM) | relative viability (Linsitinib; 0.1 µM) | relative viability (Linsitinib; 1 µM) | relative viability (Ispinesib; 0.001 µM) | relative viability (Ispinesib; 0.003162 µM) | relative viability (Ispinesib; 0.01 µM) | relative viability (Ispinesib; 0.03162 µM) | relative viability (Ispinesib; 0.1 µM) | relative viability (Linsitinib; 0.3162 µM) | relative viability (Linsitinib; 1 µM, anchor plate)
1 | NCI-H1623 | 0.889 | 0.955 | 0.889 | 0.815 | 1.07 | 1.03 | 1.05 | 1.02 | 0.722 |  | 
2 | NCI-H1648 | 1.11 | 0.972 | 0.868 | 0.8 | 1.02 | 1.13 | 0.792 | 1.14 | 0.387 | 0.345 | 
3 | NCI-H1650 | 0.917 | 0.894 | 0.926 | 0.665 | 1.07 | 1.02 | 0.912 | 0.261 | 0.196 | 0.477 | 
4 | NCI-H1651 | 0.969 | 1 | 0.942 | 0.939 | 1.06 | 1.05 | 1.06 | 0.927 | 0.549 | 0.826 | 1.01
5 | NCI-H1666 | 0.975 | 0.983 | 1.04 | 0.747 | 0.997 | 1.05 | 0.953 | 0.79 | 0.508 | 0.755 | 0.878
6 | NCI-H1703 | 0.881 |  | 0.873 | 0.492 | 1.28 | 0.88 | 0.6 | 0.163 | 0.137 | 0.577 | 0.9
7 | NCI-H1734 | 1.06 | 1.04 | 0.88 | 0.721 | 0.971 | 1.01 | 1.09 | 0.612 | 0.262 | 0.674 | 0.862
8 | NCI-H1755 | 0.976 | 1.01 | 1.01 | 0.915 | 0.972 | 1.1 | 1.1 | 0.745 | 0.351 | 0.769 | 0.996
9 | NCI-H1792 | 0.932 | 0.897 | 0.712 | 0.33 | 1.18 | 1.31 | 0.995 | 0.492 | 0.329 | 0.455 | 0.571
10 | NCI-H1793 | 0.867 | 0.906 | 0.917 | 0.682 | 0.977 | 1 | 1.19 | 0.69 | 0.201 | 0.757 | 0.903
11 | NCI-H1915 | 1.02 | 1.04 | 1.01 | 0.684 | 0.971 | 1.09 | 1.02 | 0.451 | 0.209 | 0.828 | 1.07
12 | NCI-H1944 | 1.03 | 1.08 | 0.949 | 0.535 | 1.02 | 0.997 | 1.07 | 0.425 | 0.306 | 0.579 | 1.2
13 | NCI-H1975 | 0.939 | 0.927 | 0.869 | 0.775 | 1 | 0.952 | 1 | 0.742 | 0.184 | 0.835 | 0.984
14 | NCI-H1993 | 1.03 | 0.916 | 0.879 | 0.607 | 0.959 | 1.05 | 1.05 | 0.912 | 0.651 | 0.622 | 0.759
15 | NCI-H2009 | 0.974 | 0.994 | 1.06 | 0.979 | 1.03 | 1.02 | 1.04 | 0.606 | 0.481 | 0.669 | 1.18
16 | NCI-H2023 | 0.912 | 0.668 | 0.949 | 0.618 | 1.08 | 0.961 | 1.06 | 0.387 | 0.177 | 0.649 | 0.687
